Measurements taken from patent US10604739B2, “Cardiomyocyte production” (Cellular Dynamics International, Inc., priority 2009, dated 2020).
Several values for one entry are separate records, joined by “and”; a condition that tells them apart may be missing. Identical values can stand only once.

Columns and labels:
Type in all cases: cell-based, human
iPS6.1 cells [1] = assay: iPS6.1 Four Corners experiment, FGF x HGF cardiac induction
Protocol: (§1) Aggregate formation and cardiac induction procedures of those iPS cells at different initial densities were performed essentially the same as described in Examples 4 except different concentrations of human HGF (hHGF) and FGF were applied to Aggregate Formation Medium, Aggregate Transition Medium and Cardiac Induction Medium.
Concurrent with the second iPS growth factor titration, a simple experiment (Table 19) was set up with iPS6.1 cells to test the 2×2 matrix of 0 and 25 ng/mL FGF and 0 and 50 ng/mL HGF. The positive concentrations of FGF and HGF were chosen based on the current best practices for iPS6.1 cells at the time and were identical to the conditions used for cardiac induction of H1 cells in both the plated and suspension processes. This experiment confirmed previous work showing the necessity of FGF for the process.

iPS6.1 and H9-TGZ cells = assay: Meta-analysis of paired conditions with and without 50 ng/mL HGF
Protocol: A meta-analysis across these experiments was performed to assess whether the inventors could detect any measurable benefit of including HGF in the induction medium. This analysis reviewed all the available experiments for paired conditions with and without 50 ng/mL HGF. […] This left 14 paired conditions (11 performed in triplicate within an experiment). To aid in this analysis, a process raw material cost model was employed to estimate the cost per million cardiomyocytes under each condition. This model used the most up-to-date raw material cost and process information available at the time (˜Jun. 1, 2009).

H9-TGZ cells = assay: H9-TGZ Growth Factor Titration #2; settings: HGF 0, 20, 50
Protocol: as §1
While the iPS6.1 optimization was underway, a separate series of experiments was conducted to optimize the growth factor concentrations for the H9-TGZ cells. […] Therefore, the FGF range tested was higher than that in the recent iPS6.1 experiments. This experiment confirmed that optimum cardiomyocyte production requires 100-150 ng/mL FGF with the H9-TGZ cells (FIGS. 31A-C).

iPS6.1 cells [2] = assay: iPS6.1 Growth Factor Titration #2; settings: HGF 0, 20, 50 ng/mL, best performing FGF concentration conditions
Protocol: as §1
Based on the results of the first experiment (see FIGS. 29A-B), the second iPS6.1 growth factor titration focused on the lower dose range for both FGF and HGF (FIGS. 30A-B). […] However, it is important to note that in no case did the omission of HGF lead to the failure of a condition which was otherwise successful in the presence of HGF.

[3] = First iPS 4-corners, head-to-head pairings with purity >1%
[4] = First iPS GF matrix, head-to-head pairings with purity >1%
[5] = H9-TGZ Matrix #2, head-to-head pairings with purity >1%
[6] = H9-TGZ Matrix #2 repeat, head-to-head pairings with purity >1%
[7] = HGF Conc 50 ng/mL, 14 paired conditions
[8] = Second iPS GF matrix, head-to-head pairings with purity >1%
[9] = Total of all experiments, head-to-head pairings with purity >1%

HGF: human recombinant HGF (hepatic growth factor), R&D systems
input iPS:CM (iPS6.1 cells [1]; iPS6.1 cells, 25 ng/mL FGF and/or 50 ng/mL HGF, single T25 flask, day 14): 6725 | % cTNT+ (iPS6.1 cells [1]; iPS6.1 cells, 25 ng/mL FGF and/or 50 ng/mL HGF, single T25 flask, day 14, listed as HGF only): 0% and 1.5% and 7% | Overall culture efficiency (iPS6.1 cells [1]; inclusion of HGF (50 ng/mL) together with FGF (25 ng/mL) versus FGF alone): reduced overall culture efficiency | Fraction with better CM/L @ 50 ng/mL HGF than 0 (iPS6.1 and H9-TGZ cells; [3]): 0/1 | Fraction with better iPS:CM ratio @ 50 ng/mL HGF than 0 (iPS6.1 and H9-TGZ cells; [3]): 0/1 | Fraction with better CM/L @ 50 ng/mL HGF than 0 (iPS6.1 and H9-TGZ cells; [4]): 3/4 | Fraction with better iPS:CM ratio @ 50 ng/mL HGF than 0 (iPS6.1 and H9-TGZ cells; [4]): 3/4 | Fraction with better CM/L @ 50 ng/mL HGF than 0 (iPS6.1 and H9-TGZ cells; [5]): 2/4 | Fraction with better iPS:CM ratio @ 50 ng/mL HGF than 0 (iPS6.1 and H9-TGZ cells; [5]): 2/4 | Fraction with better CM/L @ 50 ng/mL HGF than 0 (iPS6.1 and H9-TGZ cells; [6]): 0/1 | Fraction with better iPS:CM ratio @ 50 ng/mL HGF than 0 (iPS6.1 and H9-TGZ cells; [6]): 0/1 | CM/L, Average (iPS6.1 and H9-TGZ cells; [7]): 49 | CM/L, Best (iPS6.1 and H9-TGZ cells; [7]): 140 | CM/L, Worst (iPS6.1 and H9-TGZ cells; [7]): 1.5 | iPS:CM, Average (iPS6.1 and H9-TGZ cells; [7]): 100 | iPS:CM, Best (iPS6.1 and H9-TGZ cells; [7]): 7 | iPS:CM, Worst (iPS6.1 and H9-TGZ cells; [7]): 712 | Fraction with better CM/L @ 50 ng/mL HGF than 0 (iPS6.1 and H9-TGZ cells; [8]): 2/4 | Fraction with better iPS:CM ratio @ 50 ng/mL HGF than 0 (iPS6.1 and H9-TGZ cells; [8]): 2/4 | Fraction with better CM/L @ 50 ng/mL HGF than 0 (iPS6.1 and H9-TGZ cells; [9]): 7/14 | Fraction with better iPS:CM ratio @ 50 ng/mL HGF than 0 (iPS6.1 and H9-TGZ cells; [9]): 7/14 | Effect of HGF in cardiomyocyte production process (on average) (iPS6.1 and H9-TGZ cells; with vs without 50 ng/mL HGF, 14 paired conditions): no measurable positive or negative effect | Trend in process efficiency across different HGF concentrations (H9-TGZ cells): No trend was observed in process efficiency | Trend of productivity with HGF concentration (iPS6.1 cells [2]): productivity increased with higher HGF concentrations
